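Cultured in 96-well plates, cells were exposed to test compound for 48 hours across five concentrations. GI50: concentration for 50% inhibition of growth.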 Calls of active or inactive are those of the source. Cut-off read from the data, not from the text of the source: active = GI50 up to about 1.1 µM and inactive = higher. Residues, ends and D or L forms follow the SMILES beside them. Groups on a side chain read outwards from the residue. *: point of attachment. Cbz = O=C(OCc1ccccc1)*; Boc = CC(C)(C)OC(=O)*
How the values were obtained:
Assay in all cases: inhibition of tumour cell growth, NCI panel, 48 h
[1] = system: NCI-H23
[2] = system: CAKI-1
[3] = system: OVCAR-8
[4] = system: HCC 2998
[5] = system: A549
[6] = system: HCT-116
[7] = system: HL-60
[8] = system: HCT-15
[9] = system: M14
[10] = system: KM12
[11] = system: K562
[12] = system: HOP-92
[13] = system: IGROV-1
[14] = system: NCI-H460
[15] = system: Hs-578T
[16] = system: SK-OV-3
[17] = system: T47D
[18] = system: MDA-N

SMILES	GI50 [1]	GI50 [2]	GI50 [3]	GI50 [4]	GI50 [5]	GI50 [6]	GI50 [7]	GI50 [8]	GI50 [9]	GI50 [10]	GI50 [11]	GI50 [12]	GI50 [13]	GI50 [14]	GI50 [15]	GI50 [16]	GI50 [17]	GI50 [18]
CC1CCC(C(C)C)C(OC(=O)NCn2cc(-c3ccccc3)nn2)C1 (configuration not stated)	> 100 µM (inactive)	> 100 µM (inactive)	75.5 µM (inactive)	85.1 µM (inactive)	> 100 µM (inactive)	> 100 µM (inactive)	> 100 µM (inactive)	> 100 µM	> 100 µM (inactive)	> 100 µM (inactive)	> 100 µM (inactive)	> 100 µM (inactive)	> 100 µM (inactive)	> 100 µM (inactive)	–	–	–	–
NC(=O)CN1CC(C2=C(O)CN(CC(N)=O)C2=O)=CC1=O	> 100 µM (inactive)	> 100 µM (inactive)	> 100 µM (inactive)	> 100 µM (inactive)	> 100 µM (inactive)	> 100 µM (inactive)	> 100 µM (inactive)	> 100 µM	> 100 µM (inactive)	> 100 µM (inactive)	> 100 µM (inactive)	> 100 µM (inactive)	> 100 µM (inactive)	> 100 µM (inactive)	> 100 µM (inactive)	> 100 µM (inactive)	> 100 µM (inactive)	–
COc1nc(O)nc2c1C(c1ccc([N+](=O)[O-])cc1)c1c(OC)nc(O)nc1O2	> 100 µM (inactive)	> 100 µM (inactive)	> 100 µM (inactive)	–	> 100 µM (inactive)	> 100 µM (inactive)	> 100 µM (inactive)	> 100 µM	> 100 µM (inactive)	> 100 µM (inactive)	–	–	> 100 µM (inactive)	> 100 µM (inactive)	> 100 µM (inactive)	> 100 µM (inactive)	–	> 100 µM (inactive)
NC(=O)N/N=C1\CCCCc2ccccc21	> 10 µM (inactive)	> 10 µM (inactive)	> 10 µM (inactive)	> 10 µM (inactive)	> 10 µM (inactive)	> 10 µM (inactive)	–	> 10 µM	> 10 µM (inactive)	> 10 µM (inactive)	> 10 µM (inactive)	> 10 µM (inactive)	–	> 10 µM (inactive)	–	–	> 10 µM (inactive)	> 10 µM (inactive)
COc1ccc(N2C(=O)/C(=C\c3cccc(Oc4ccccc4)c3)S(=O)(=O)C2c2ccccc2)cc1 (configuration not stated)	28.4 µM (inactive)	68.4 µM (inactive)	–	> 100 µM (inactive)	31.5 µM (inactive)	20.4 µM (inactive)	7.24 µM (inactive)	21 µM	38.8 µM (inactive)	22.5 µM (inactive)	16.4 µM (inactive)	42.2 µM (inactive)	–	36.7 µM (inactive)	–	–	35.6 µM (inactive)	19.1 µM (inactive)
O=CNNC(=O)Nc1cccc2ccccc12	> 100 µM (inactive)	–	> 100 µM (inactive)	> 100 µM (inactive)	> 100 µM (inactive)	> 100 µM (inactive)	> 100 µM (inactive)	> 100 µM	> 100 µM (inactive)	> 100 µM (inactive)	> 100 µM (inactive)	> 10 µM (inactive)	> 100 µM (inactive)	> 100 µM (inactive)	> 100 µM (inactive)	> 100 µM (inactive)	> 100 µM (inactive)	–
COC(=O)N/N=C(\C)C(CN1CCOCC1)C(c1ccccc1)c1cc2ccccc2oc1=O (configuration not stated)	> 100 µM (inactive)	> 100 µM (inactive)	> 100 µM (inactive)	> 100 µM (inactive)	> 100 µM (inactive)	> 100 µM (inactive)	36.3 µM (inactive)	> 100 µM	> 100 µM (inactive)	> 100 µM (inactive)	70.5 µM (inactive)	30.5 µM (inactive)	> 100 µM (inactive)	> 100 µM (inactive)	> 100 µM (inactive)	> 100 µM (inactive)	> 100 µM (inactive)	–
Nc1ncnc2ccc(Sc3ccc4ncnc(N)c4c3)cc12	–	> 100 µM (inactive)	> 100 µM (inactive)	–	> 100 µM (inactive)	> 100 µM (inactive)	> 100 µM (inactive)	> 100 µM	> 100 µM (inactive)	> 100 µM (inactive)	> 100 µM (inactive)	71.3 µM (inactive)	> 100 µM (inactive)	> 100 µM (inactive)	> 100 µM (inactive)	> 100 µM (inactive)	> 100 µM (inactive)	–
COc1ncnc2c1cnn2Cc1cn(COCC(O)CO)nn1 (configuration not stated)	> 100 µM (inactive)	> 100 µM (inactive)	> 100 µM (inactive)	> 100 µM (inactive)	> 100 µM (inactive)	> 100 µM (inactive)	> 100 µM (inactive)	> 100 µM	> 100 µM (inactive)	> 100 µM (inactive)	> 100 µM (inactive)	22.8 µM (inactive)	> 100 µM (inactive)	–	–	> 100 µM (inactive)	> 100 µM (inactive)	> 100 µM (inactive)
CC(=O)Nc1ccc2c(c1)[nH]c(=O)c1cc(Cl)ccc12	17.1 µM (inactive)	0.51 µM (active)	10 µM (inactive)	38.5 µM (inactive)	5.61 µM (inactive)	17.4 µM (inactive)	21.1 µM (inactive)	33.1 µM	36.5 µM (inactive)	26.5 µM (inactive)	34.1 µM (inactive)	–	6.75 µM (inactive)	10.4 µM (inactive)	94 µM (inactive)	34.8 µM (inactive)	57.9 µM (inactive)	–
COc1cc(OC)cc(Oc2nc3ccccc3nc2C(=O)O)c1	> 100 µM (inactive)	> 100 µM (inactive)	> 100 µM (inactive)	> 100 µM (inactive)	> 100 µM (inactive)	> 100 µM (inactive)	> 100 µM (inactive)	> 100 µM	> 100 µM (inactive)	> 100 µM (inactive)	> 100 µM (inactive)	> 100 µM (inactive)	> 100 µM (inactive)	> 100 µM (inactive)	> 100 µM (inactive)	> 100 µM (inactive)	> 100 µM (inactive)	–
CCOC(=O)C1C(=O)CC(C)(O)C(C(=O)OCC)C1c1ccc(N(C)C)cc1 (configuration not stated)	> 100 µM (inactive)	> 100 µM (inactive)	> 100 µM (inactive)	> 100 µM (inactive)	> 100 µM (inactive)	> 100 µM (inactive)	> 100 µM (inactive)	> 100 µM	–	> 100 µM (inactive)	> 100 µM (inactive)	> 100 µM (inactive)	> 100 µM (inactive)	> 100 µM (inactive)	–	–	> 100 µM (inactive)	–
CS(=O)(=O)CCC1CCC(=O)O1 (configuration not stated)	94.2 µM (inactive)	> 100 µM (inactive)	> 100 µM (inactive)	> 100 µM (inactive)	43.6 µM (inactive)	48.6 µM (inactive)	> 100 µM (inactive)	> 100 µM	> 100 µM (inactive)	> 100 µM (inactive)	> 100 µM (inactive)	> 100 µM (inactive)	> 100 µM (inactive)	69.5 µM (inactive)	49 µM (inactive)	–	> 100 µM (inactive)	–
O=C(CSC1=NC(=O)C2(NN1)c1ccccc1-c1ccccc12)NC(=S)Nc1ccccc1	> 10 µM (inactive)	> 10 µM (inactive)	> 10 µM (inactive)	> 10 µM (inactive)	> 10 µM (inactive)	> 10 µM (inactive)	> 10 µM (inactive)	> 10 µM	> 10 µM (inactive)	> 10 µM (inactive)	> 10 µM (inactive)	> 10 µM (inactive)	> 10 µM (inactive)	> 10 µM (inactive)	–	> 10 µM (inactive)	2.34 µM (inactive)	> 10 µM (inactive)
CC(C)(C)OC(=O)NC(CCCCNC(=O)CNC(=O)OCc1ccccc1)C(=O)NC(CCCCNC(=O)CNC(=O)OCc1ccccc1)C(=O)NC(CCCCNC(=O)CNC(=O)OCc1ccccc1)C(=O)NC(CCCCNC(=O)CNC(=O)OCc1ccccc1)C(=O)O (configuration not stated) (Boc-K([Gly-Cbz])K([Gly-Cbz])K([Gly-Cbz])K([Gly-Cbz])-OH; configuration not given here)	> 100 µM (inactive)	> 100 µM (inactive)	> 100 µM (inactive)	> 100 µM (inactive)	> 100 µM (inactive)	> 100 µM (inactive)	> 100 µM (inactive)	> 100 µM	> 100 µM (inactive)	–	> 100 µM (inactive)	–	> 100 µM (inactive)	> 100 µM (inactive)	–	–	> 100 µM (inactive)	> 100 µM (inactive)
Cc1nc2c(=S)n(C)ncc2[nH]1	> 100 µM (inactive)	> 100 µM (inactive)	> 100 µM (inactive)	> 100 µM (inactive)	> 100 µM (inactive)	> 100 µM (inactive)	> 100 µM (inactive)	> 100 µM	> 100 µM (inactive)	> 100 µM (inactive)	> 100 µM (inactive)	–	> 100 µM (inactive)	–	–	> 100 µM (inactive)	> 100 µM (inactive)	> 100 µM (inactive)
COC(=O)c1cccc(COc2ccc([N+](=O)[O-])cc2Cl)c1	> 100 µM (inactive)	56 µM (inactive)	> 100 µM (inactive)	–	42.5 µM (inactive)	> 100 µM (inactive)	–	70.5 µM	> 100 µM (inactive)	> 100 µM (inactive)	72.4 µM (inactive)	44.5 µM (inactive)	> 100 µM (inactive)	> 100 µM (inactive)	60.1 µM (inactive)	> 100 µM (inactive)	> 100 µM (inactive)	–
O=C(OCCN=C1c2ccccc2CCc2ccccc21)c1cc([N+](=O)[O-])cc([N+](=O)[O-])c1	> 31.6 µM (inactive)	29.3 µM (inactive)	> 31.6 µM (inactive)	–	26.7 µM (inactive)	> 31.6 µM (inactive)	25.7 µM (inactive)	> 31.6 µM	> 31.6 µM (inactive)	28.1 µM (inactive)	20.7 µM (inactive)	> 31.6 µM (inactive)	28.2 µM (inactive)	> 31.6 µM (inactive)	> 31.6 µM (inactive)	> 100 µM (inactive)	–	> 31.6 µM (inactive)
